# Laboratory results from patent US8329904B2, “Azacyclic derivatives” (Hoffmann-La Roche Inc., priority 2009, dated 2012).
# Biological target: T1, human HSL (Homo sapiens, UniProt Q05469)
# T1 construct: overlapping PCR to generate a full length human HSL ORF with a 3′-His6 tag; His6 (C); made in house; host or cells: High 5 insect cells (baculovirus, pFast-BAC)
# T1 sequence (Q05469 1-1076): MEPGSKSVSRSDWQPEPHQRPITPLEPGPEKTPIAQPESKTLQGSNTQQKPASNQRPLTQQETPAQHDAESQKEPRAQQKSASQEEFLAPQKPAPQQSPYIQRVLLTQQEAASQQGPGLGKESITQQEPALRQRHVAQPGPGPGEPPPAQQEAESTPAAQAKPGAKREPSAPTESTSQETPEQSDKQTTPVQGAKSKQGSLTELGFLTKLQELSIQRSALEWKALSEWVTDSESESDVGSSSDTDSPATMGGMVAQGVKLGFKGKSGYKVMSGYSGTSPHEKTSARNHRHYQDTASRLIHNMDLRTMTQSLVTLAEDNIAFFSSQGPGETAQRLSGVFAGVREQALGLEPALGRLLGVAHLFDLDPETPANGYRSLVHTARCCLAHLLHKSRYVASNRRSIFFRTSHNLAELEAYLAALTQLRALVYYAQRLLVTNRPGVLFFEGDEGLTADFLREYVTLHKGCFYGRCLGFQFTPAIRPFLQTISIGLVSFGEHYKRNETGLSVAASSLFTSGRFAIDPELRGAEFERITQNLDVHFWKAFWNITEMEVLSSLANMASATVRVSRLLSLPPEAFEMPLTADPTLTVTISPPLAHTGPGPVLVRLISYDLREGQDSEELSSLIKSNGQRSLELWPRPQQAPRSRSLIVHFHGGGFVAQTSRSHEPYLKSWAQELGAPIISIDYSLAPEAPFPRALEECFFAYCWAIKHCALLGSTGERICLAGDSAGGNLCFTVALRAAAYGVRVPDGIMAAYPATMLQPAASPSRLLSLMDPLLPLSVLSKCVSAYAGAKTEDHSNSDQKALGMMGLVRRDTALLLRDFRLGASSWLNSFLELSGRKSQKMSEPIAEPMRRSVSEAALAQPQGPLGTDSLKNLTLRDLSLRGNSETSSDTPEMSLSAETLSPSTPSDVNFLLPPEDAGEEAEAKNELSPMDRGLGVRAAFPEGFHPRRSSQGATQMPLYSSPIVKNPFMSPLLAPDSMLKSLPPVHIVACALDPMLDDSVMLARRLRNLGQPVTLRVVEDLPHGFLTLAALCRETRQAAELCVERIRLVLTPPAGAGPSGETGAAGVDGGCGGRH
# Assay: Human Hormone-Sensitive Lipase (HSL) Enzyme Inhibition Assay
# Assay type: biochemical
# Conditions: colorimetric assay, 2,3-dimercapto-1-propanol tributyrate (DMPT) substrate, 37° C. for 20 minutes, absorbance at 405 nm; read-out: HSL hum IC50
# Outline: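 Colorimetric thioester hydrolysis: compounds in DMSO series mixed with DMPT (1.5 mM) in MOPS pH 7.2 with BSA, then baculovirus-expressed His6-tagged full-length human HSL added, 37° C, 20 min. DTNB plus detergents added, 15 min room temperature, absorbance at 405 nm.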
row,IC50 [nM],Compound
1,20,"O=C1N(c2ccc(C(O)C(F)(F)F)cc2)CCC12CCN(S(=O)(=O)c1ccccc1C(F)(F)F)CC2 (stereo not shown) [Example 166, 2-(4-(2,2,2-trifluoro-1-hydroxyethyl)phenyl)-8-(2-(trifluoromethyl)phenylsulfonyl)-2,8-diazaspiro[4.5]decan-1-one]"
2,70,"CC(C)CS(=O)(=O)N1CCC2(CCN(c3ccc(C(O)C(F)(F)F)cc3)C2=O)CC1 (stereo not shown) [Example 167, 8-(isobutylsulfonyl)-2-(4-(2,2,2-trifluoro-1-hydroxyethyl)phenyl)-2,8-diazaspiro[4.5]decan-1-one]"
3,130,"CC(C)CS(=O)(=O)N1CCC2(CCN(c3ccc(C(C)(O)C(F)(F)F)cc3)C2=O)CC1 (stereo not shown) [Example 168, 8-(isobutylsulfonyl)-2-(4-(1,1,1-trifluoro-2-hydroxypropan-2-yl)phenyl)-2,8-diazaspiro[4.5]decan-1-one]"
4,30,"CC(O)(c1ccc(N2CCC3(CCN(S(=O)(=O)c4ccccc4C(F)(F)F)CC3)C2=O)cc1)C(F)(F)F (stereo not shown) [Example 169, 2-(4-(1,1,1-trifluoro-2-hydroxypropan-2-yl)phenyl)-8-(2-(trifluoromethyl)phenylsulfonyl)-2,8-diazaspiro[4.5]decan-1-one]"
5,320,"O=C1N(c2ccc(C(O)C(F)(F)F)cc2)CCC12CCN(S(=O)(=O)C1CC1)CC2 (stereo not shown) [Example 170, 8-(Cyclopropylsulfonyl)-2-(4-(2,2,2-trifluoro-1-hydroxyethyl)phenyl)-2,8-diazaspiro[4.5]decan-1-one]"
6,550,"CC(O)(c1ccc(N2CCC3(CCN(S(=O)(=O)C4CC4)CC3)C2=O)cc1)C(F)(F)F (stereo not shown) [Example 171, 8-(Cyclopropylsulfonyl)-2-(4-(1,1,1-trifluoro-2-hydroxypropan-2-yl)phenyl)-2,8-diazaspiro[4.5]decan-1-one]"
7,770,"CCS(=O)(=O)c1ccc(N2CCC3(CCN(S(=O)(=O)CC(C)(C)C)CC3)C2=O)cc1 [Example 172, 8-(2,2-Dimethyl-propane-1-sulfonyl)-2-(4-ethanesulfonyl-phenyl)-2,8-diaza-spiro[4.5]decan-1-one]"
8,140,"O=C1N(c2ccc(C(O)CF)cc2)CCC12CCN(S(=O)(=O)c1ccccc1C(F)(F)F)CC2 (stereo not shown) [Example 173, 2-(4-(2-fluoro-1-hydroxyethyl)phenyl)-8-(2-(trifluoromethyl)phenylsulfonyl)-2,8-diazaspiro[4.5]decan-1-one]"
9,60,"CC(C)(O)c1ccc(N2CCC3(CCN(S(=O)(=O)c4ccccc4C(F)(F)F)CC3)C2=O)cc1 [Example 174, 2-[4-(1-Hydroxy-1-methyl-ethyl)-phenyl]-8-(2-trifluoromethyl-benzenesulfonyl)-2,8-diaza-spiro[4.5]decan-1-one]"
10,750,"CC(C)(C)CC(=O)N1CCC2(CC1)CCN(c1ccc(C(O)C(C)(F)F)cc1)C2=O (stereo not shown) [Example 175, 2-(4-(2,2-difluoro-1-hydroxypropyl)phenyl)-8-(3,3-dimethylbutanoyl)-2,8-diazaspiro[4.5]decan-1-one]"
11,450,"CC(C)CS(=O)(=O)N1CCC2(CCN(c3ccc(C(O)C(F)F)cc3)C2=O)CC1 (stereo not shown) [Example 177, 2-(4-(2,2-difluoro-1-hydroxyethyl)phenyl)-8-(isobutylsulfonyl)-2,8-diazaspiro[4.5]decan-1-one]"
12,640,"CC(C)(C)CC(=O)N1CCC2(CC1)CCN(c1ccc(C(O)C(F)F)cc1)C2=O (stereo not shown) [Example 178, 2-(4-(2,2-difluoro-1-hydroxyethyl)phenyl)-8-(3,3-dimethylbutanoyl)-2,8-diazaspiro[4.5]decan-1-one]"
13,40,"O=C1N(c2ccc(C(F)(F)F)cc2)CCC12CCN(S(=O)(=O)c1ccccc1Cl)CC2 [Example 179, 8-(2-Chloro-benzenesulfonyl)-2-(4-trifluoromethyl-phenyl)-2,8-diaza-spiro[4.5]decan-1-one]"
14,60,"Cc1nn(C)c(C)c1S(=O)(=O)N1CCC2(CCN(c3ccc(OC(F)(F)F)cc3)C2=O)CC1 [Example 180, 2-(4-Trifluoromethoxy-phenyl)-8-(1,3,5-trimethyl-1H-pyrazole-4-sulfonyl)-2,8-diaza-spiro[4.5]decan-1-one]"
15,260,"Cn1cnc(S(=O)(=O)N2CCC3(CCN(c4ccc(OC(F)(F)F)cc4)C3=O)CC2)c1 [Example 181, 8-(1-Methyl-1H-imidazole-4-sulfonyl)-2-(4-trifluoromethoxy-phenyl)-2,8-diaza-spiro[4.5]decan-1-one]"
16,90,"O=C1N(c2ccc(OC(F)(F)F)cc2)CCC12CCN(S(=O)(=O)N1CCCC1)CC2 [Example 182, 8-(Pyrrolidine-1-sulfonyl)-2-(4-trifluoromethoxy-phenyl)-2,8-diaza-spiro[4.5]decan-1-one]"
17,40,"Cn1nccc1S(=O)(=O)N1CCC2(CCN(c3ccc(OC(F)(F)F)cc3)C2=O)CC1 [Example 183, 8-(2-Methyl-2H-pyrazole-3-sulfonyl)-2-(4-trifluoromethoxy-phenyl)-2,8-diaza-spiro[4.5]decan-1-one]"
18,80,"Cn1ccc(S(=O)(=O)N2CCC3(CCN(c4ccc(OC(F)(F)F)cc4)C3=O)CC2)n1 [Example 184, 8-(1-Methyl-1H-pyrazole-3-sulfonyl)-2-(4-trifluoromethoxy-phenyl)-2,8-diaza-spiro[4.5]decan-1-one]"
19,220,"Cc1oncc1S(=O)(=O)N1CCC2(CCN(c3ccc(OC(F)(F)F)cc3)C2=O)CC1 [Example 185, 8-(5-Methyl-isoxazole-4-sulfonyl)-2-(4-trifluoromethoxy-phenyl)-2,8-diaza-spiro[4.5]decan-1-one]"
20,110,"Cc1noc(C)c1S(=O)(=O)N1CCC2(CCN(c3ccc(OC(F)(F)F)cc3)C2=O)CC1 [Example 186, 8-(3,5-Dimethyl-isoxazole-4-sulfonyl)-2-(4-trifluoromethoxy-phenyl)-2,8-diaza-spiro[4.5]decan-1-one]"
21,30,"O=C1N(c2ccc(OC(F)(F)F)cc2)CCC12CCN(S(=O)(=O)c1cccnc1)CC2 [Example 187, 8-(Pyridine-3-sulfonyl)-2-(4-trifluoromethoxy-phenyl)-2,8-diaza-spiro[4.5]decan-1-one]"
22,20,"O=C1N(c2ccc(OC(F)(F)F)cc2)CCC12CCN(S(=O)(=O)c1cccnc1Cl)CC2 [Example 188, 8-(2-Chloro-pyridine-3-sulfonyl)-2-(4-trifluoromethoxy-phenyl)-2,8-diaza-spiro[4.5]decan-1-one]"
23,30,"CNc1ncccc1S(=O)(=O)N1CCC2(CCN(c3ccc(OC(F)(F)F)cc3)C2=O)CC1 [Example 189, 8-(2-Methylamino-pyridine-3-sulfonyl)-2-(4-trifluoromethoxy-phenyl)-2,8-diaza-spiro[4.5]decan-1-one]"
24,20,"CN(C)c1ncccc1S(=O)(=O)N1CCC2(CCN(c3ccc(OC(F)(F)F)cc3)C2=O)CC1 [Example 190, 8-(2-Dimethylamino-pyridine-3-sulfonyl)-2-(4-trifluoromethoxy-phenyl)-2,8-diaza-spiro[4.5]decan-1-one]"
25,80,"O=C1N(c2ccc(OC(F)(F)F)cc2)CCC12CCN(S(=O)(=O)c1cccnc1NC1CC1)CC2 [Example 191, 8-(2-Cyclopropylamino-pyridine-3-sulfonyl)-2-(4-trifluoromethoxy-phenyl)-2,8-diaza-spiro[4.5]decan-1-one]"
26,40,"O=C1N(c2ccc(OC(F)(F)F)cc2)CCC12CCN(S(=O)(=O)c1cccnc1NCCO)CC2 [Example 192, 8-[2-(2-Hydroxy-ethylamino)-pyridine-3-sulfonyl]-2-(4-trifluoromethoxy-phenyl)-2,8-diaza-spiro[4.5]decan-1-one]"
27,60,"CC(CO)Nc1ncccc1S(=O)(=O)N1CCC2(CCN(c3ccc(OC(F)(F)F)cc3)C2=O)CC1 (stereo not shown) [Example 193, 8-[2-(2-Hydroxy-1-methyl-ethylamino)-pyridine-3-sulfonyl]-2-(4-trifluoromethoxy-phenyl)-2,8-diaza-spiro[4.5]decan-1-one]"
28,20,"COc1ncccc1S(=O)(=O)N1CCC2(CCN(c3ccc(OC(F)(F)F)cc3)C2=O)CC1 [Example 194, 8-(2-Methoxy-pyridine-3-sulfonyl)-2-(4-trifluoromethoxy-phenyl)-2,8-diaza-spiro[4.5]decan-1-one]"
